Reference: patent US12522594B2, “2-heteroaryl-3-oxo-2,3-dihydropyridazine-4-carboxamides for the treatment of cancer” (Deutsches Krebsforschungszentrum, priority 2017, dated 2026)

Columns and labels:
Assay type in all cases: cell-based
AHR [1] = target: T1, AHR (Homo sapiens, UniProt P35869); test: In vitro assay 2: agonism in human cell line (transactivation assay, U87 cells, DRE firefly luciferase reporter); design: host or cells: U87 glioblastoma cells, stably transfected with DRE firefly luciferase and renilla reporter constructs; conditions: no kynurenic acid, 20 hours, read-out: Assay 2: AHR-luc Hum Agonism IC50
T1 sequence (P35869 11-848): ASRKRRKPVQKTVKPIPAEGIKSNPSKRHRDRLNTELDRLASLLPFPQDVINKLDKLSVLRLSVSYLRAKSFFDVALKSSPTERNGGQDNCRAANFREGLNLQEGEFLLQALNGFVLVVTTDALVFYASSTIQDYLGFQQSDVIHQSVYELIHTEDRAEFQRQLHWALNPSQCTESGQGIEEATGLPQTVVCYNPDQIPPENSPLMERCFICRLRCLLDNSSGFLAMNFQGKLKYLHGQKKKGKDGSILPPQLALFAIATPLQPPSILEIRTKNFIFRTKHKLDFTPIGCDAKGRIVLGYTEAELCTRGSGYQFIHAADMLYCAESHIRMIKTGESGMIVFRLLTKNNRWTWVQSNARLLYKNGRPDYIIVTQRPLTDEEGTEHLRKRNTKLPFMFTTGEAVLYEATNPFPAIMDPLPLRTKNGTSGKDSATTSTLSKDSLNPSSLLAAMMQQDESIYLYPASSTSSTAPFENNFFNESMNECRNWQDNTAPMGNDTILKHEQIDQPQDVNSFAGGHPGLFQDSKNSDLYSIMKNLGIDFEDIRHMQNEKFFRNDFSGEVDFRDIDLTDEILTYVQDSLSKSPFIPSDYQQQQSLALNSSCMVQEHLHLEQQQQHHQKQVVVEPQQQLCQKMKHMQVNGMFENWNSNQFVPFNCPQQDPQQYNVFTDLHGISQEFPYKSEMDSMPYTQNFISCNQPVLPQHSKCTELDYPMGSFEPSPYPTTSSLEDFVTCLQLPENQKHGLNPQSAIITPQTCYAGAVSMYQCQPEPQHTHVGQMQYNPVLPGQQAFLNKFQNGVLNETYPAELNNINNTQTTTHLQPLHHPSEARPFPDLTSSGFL
Method in brief: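 U87 glioblastoma cells with endogenous AHR, stably carrying DRE-driven firefly luciferase and constitutive renilla reporters. 300 uM kynurenic acid served as positive activation control; data normalized to positive and negative controls.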

AHR [2] = target: T1, AHR; test: In vitro assay 3: AHR-regulated CYP1A1 expression in human cell line (U937, qPCR, KA stimulation); conditions: U937 cells, 200 uM KA, 6 hours, CYP1A1 expression by qPCR; read-out: Assay 3: Hum CYP1A1 Antagonism IC50
Method in brief: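 U937 human monocytic cells were stimulated with 200 uM KA for 6 h, with or without compound at eight concentrations from 1 nM to 3 uM, in duplicate. CYP1A1 mRNA was quantified by Taqman qPCR as fold expression normalised to HPRT. Unstimulated cells served as negative control.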

AHR [3] = target: T1, AHR; test: In vitro assay 1: antagonism in human cell line (transactivation assay, U87 cells prestimulated with kynurenic acid, DRE firefly luciferase reporter); design: host or cells: U87 glioblastoma cells, stably transfected with DRE firefly luciferase and renilla reporter constructs; conditions: 150 uM kynurenic acid, 20 hours, read-out: Assay 1: AHR-luc Hum Antagonism IC50
Method in brief: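 U87 glioblastoma cells with endogenous AHR, stably carrying a DRE-driven firefly luciferase reporter and a constitutive renilla reporter. Cells prestimulated with the AHR agonist kynurenic acid before compound addition; data normalized to positive and negative controls.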

IC50 (AHR [1]) [µM] | IC50 (AHR [2]) [µM] | IC50 (AHR [3]) [µM] | Compound
> 20 | 0.0373 | 0.0303 | Cn1cc(-n2nc(-c3ccc(Cl)cc3)cc(C(=O)N[C@@H]3CCC[C@]3(C)O)c2=O)cn1 (relative stereo) [Example 317, 6-(4-Chlorophenyl)-N-[(cis)-2-hydroxy-2-methylcyclopentyl]-2-(1-methyl-1H-pyrazol-4-yl)-3-oxo-2,3-dihydropyridazine-4-carboxamide]
> 20 | 0.00196 | 0.00336 | C[C@@H](CO)NC(=O)c1cc(-c2ccc(Cl)cc2)nn(-c2ccc(F)s2)c1=O [Example 220, 6-(4-Chlorophenyl)-2-(5-fluoro-2-thienyl)-N-[(2S)-1-hydroxypropan-2-yl]-3-oxo-2,3-dihydropyridazine-4-carboxamide]
> 20 | 0.0219 | 0.0356 | Cn1cc(-n2nc(-c3ccc(Cl)cc3)cc(C(=O)NCC(C)(C)O)c2=O)cn1 [Example 32, 6-(4-Chlorophenyl)-N-(2-hydroxy-2-methylpropyl)-2-(1-methyl-1H-pyrazol-4-yl)-3-oxo-2,3-dihydropyridazine-4-carboxamide]
> 20 | 0.0835 | 0.0415 | Cn1cc(-n2nc(-c3ccc(Cl)cc3)cc(C(=O)N[C@@H]3COC[C@@H]3O)c2=O)cn1 (single isomer, unassigned; enantiomer 2) [Example 45, 6-(4-Chlorophenyl)-N-[(cis)-4-hydroxytetrahydrofuran-3-yl]-2-(1-methyl-1H-pyrazol-4-yl)-3-oxo-2,3-dihydropyridazine-4-carboxamide, Enantiomer 2]
> 20 | 0.0345 | 0.0376 | CC(C)(O)CNC(=O)c1cc(-c2ccc(Cl)cc2)nn(-c2cncc(F)c2)c1=O [Example 82, 6-(4-Chlorophenyl)-2-(5-fluoropyridin-3-yl)-N-(2-hydroxy-2-methylpropyl)-3-oxo-2,3-dihydropyridazine-4-carboxamide]
> 20 | 0.0087 | 0.0112 | O=C(NC(CO)C1CC1)c1cc(-c2ccc(Cl)cc2)nn(-c2cccnc2)c1=O (racemic) [Example 77, 6-(4-Chlorophenyl)-N-[(1RS)-1-cyclopropyl-2-hydroxyethyl]-3-oxo-2-(pyridin-3-yl)-2,3-dihydropyridazine-4-carboxamide]
> 20 | 0.0337 | 0.0219 | C[C@@H](CO)NC(=O)c1cc(-c2ccc(OC(F)F)cc2)nn(-c2cnn(C)c2)c1=O [Example 308, 6-[4-(Difluoromethoxy)phenyl]-N-[(2S)-1-hydroxypropan-2-yl]-2-(1-methyl-1H-pyrazol-4-yl)-3-oxo-2,3-dihydropyridazine-4-carboxamide]
> 20 | 0.0102 | 0.00425 | Cc1ccc(-c2cc(C(=O)NCC(O)C(F)(F)F)c(=O)n(-c3cnn(C)c3)n2)cc1 (stereo not drawn) [Example 10, 6-(4-Methylphenyl)-2-(1-methyl-1H-pyrazol-4-yl)-3-oxo-N-(3,3,3-trifluoro-2-hydroxypropyl)-2,3-dihydropyridazine-4-carboxamide]
> 20 | 0.00264 | 0.0048 | O=C(NCC(O)C(F)(F)F)c1cc(-c2ccc(Cl)cc2)nn(-c2cccnc2)c1=O (single isomer, unassigned; (-)) [Example 89, (−)-6-(4-Chlorophenyl)-3-oxo-2-(pyridin-3-yl)-N-(3,3,3-trifluoro-2-hydroxypropyl)-2,3-dihydropyridazine-4-carboxamide]
> 20 | 0.0856 | 0.0444 | C[C@H](NC(=O)c1cc(-c2ccc(Cl)cc2)nn(-c2cnn(C(F)F)c2)c1=O)C(C)(C)O [Example 264, 6-(4-Chlorophenyl)-2-[1-(difluoromethyl)-1H-pyrazol-4-yl]-N-[(2S)-3-hydroxy-3-methylbutan-2-yl]-3-oxo-2,3-dihydropyridazine-4-carboxamide]
> 20 | 0.0076 | 0.00309 | C[C@@H](CO)NC(=O)c1cc(-c2ccc(Cl)cc2)nn(-c2cnsc2)c1=O [Example 194, (+)-6-(4-Chlorophenyl)-N-[(2S)-1-hydroxypropan-2-yl]-3-oxo-2-(1,2-thiazol-4-yl)-2,3-dihydropyridazine-4-carboxamide]

Further lines, the molecule ahead of its results:

Compound | IC50 (AHR [1]) [µM] | IC50 (AHR [2]) [µM] | IC50 (AHR [3]) [µM]
O=C(N[C@H]1COC[C@@H]1O)c1cc(-c2ccc(OC(F)(F)F)cc2)nn(-c2cccnc2)c1=O (single isomer, unassigned; enantiomer 2) [Example 162, N-[(trans)-4-Hydroxytetrahydrofuran-3-yl]-3-oxo-2-(pyridin-3-yl)-6-[4-(trifluoromethoxy)phenyl]-2,3-dihydropyridazine-4-carboxamide, Enantiomer 2] | > 20 | 0.0373 | 0.0273
O=C(NC(CO)C(F)(F)F)c1cc(-c2ccc(OC(F)(F)F)cc2)nn(-c2cccnc2)c1=O (stereo not drawn) [Example 149, 3-Oxo-2-(pyridin-3-yl)-N-(1,1,1-trifluoro-3-hydroxypropan-2-yl)-6-[4-(trifluoromethoxy)phenyl]-2,3-dihydropyridazine-4-carboxamide] | > 20 | 0.0112 | 0.0188
O=C(NC[C@@H](O)CO)c1cc(-c2ccc(Cl)cc2)nn(-c2cccnc2)c1=O [Example 73, (+)-6-(4-Chlorophenyl)-N-[(2R)-2,3-dihydroxypropyl]-3-oxo-2-(pyridin-3-yl)-2,3-dihydropyridazine-4-carboxamide] | > 20 | 0.355 | 0.283
Cn1cc(-n2nc(-c3ccc(C(F)(F)F)cc3)cc(C(=O)N[C@@H]3COC[C@@H]3O)c2=O)cn1 (single isomer, unassigned) [Example 231, (−)-N-cis-4-Hydroxytetra-hydrofuran-3-yl-2-(1-methyl-1H-pyrazol-4-yl)-3-oxo-6-[4-(trifluoromethyl)phenyl]-2,3-dihydropyridazine-4-carboxamide] | > 20 | 0.00993 | 0.00789
CC(C)(O)CNC(=O)c1cc(-c2ccc(C(F)(F)F)cc2)nn(-c2cccnc2)c1=O [Example 115, N-(2-Hydroxy-2-methylpropyl)-3-oxo-2-(pyridin-3-yl)-6-[4-(trifluoromethyl)phenyl]-2,3-dihydropyridazine-4-carboxamide] | > 20 | 0.0109 | 0.00263
CC(C)(O)CNC(=O)c1cc(-c2ccc(OC(F)(F)F)cc2)nn(-c2cccnc2)c1=O [Example 292, N-(2-Hydroxy-2-methylpropyl)-3-oxo-2-(pyridin-3-yl)-6-[4-(trifluoromethoxy)phenyl]-2,3-dihydropyridazine-4-carboxamide] | > 20 | 0.0433 | 0.0459
O=C(N[C@H](CO)C(F)(F)F)c1cc(-c2ccc(C(F)(F)F)cc2)nn(-c2cccnc2)c1=O [Example 112, 3-Oxo-2-(pyridin-3-yl)-N-[(2R)-1,1,1-trifluoro-3-hydroxypropan-2-yl]-6-[4-(trifluoromethyl)phenyl]-2,3-dihydropyridazine-4-carboxamide] | > 20 | 0.000905 | 0.00115
O=C(NC[C@H](O)C(F)(F)F)c1cc(-c2ccc(C(F)F)cc2)nn(-c2cccnc2)c1=O [Example 313, 6-[4-(Difluoromethyl)phenyl]-3-oxo-2-(pyridin-3-yl)-N-[(2S)-3,3,3-trifluoro-2-hydroxypropyl]-2,3-dihydropyridazine-4-carboxamide] | > 20 | 0.00381 | 0.00263
O=C(N[C@@H]1COC[C@@H]1O)c1cc(-c2ccc(C(F)(F)F)cc2)nn(-c2cccnc2)c1=O (single isomer, unassigned) [Example 229, (+)-N-cis-4-Hydroxytetra-hydrofuran-3-yl-3-oxo-2-(pyridin-3-yl)-6-[4-(trifluoromethyl)phenyl]-2,3-dihydropyridazine-4-carboxamide] | > 20 | 0.0122 | 0.00709
